The test system of the experiment is bacterial mix: Escherichia coli DSM 1576, Alcaligenes faecalis DSM 13644, Pseudomonas aeruginosa ATCC 15442, Staphylococcus aureus ATCC 6538, Burkholderia …. The experiment can be described thus: Preservative activity of a basic composition (10% PG in water, pH 7) with 4,4'-dichloro-2-hydroxydiphenyl ether (diclosan) against bacterial contamination (Example 2.2). The note with it: day 7. The experiment is classed as cell-based. The procedure:
An aqueous composition of pH 7 comprising 10% by weight of propyleneglycol (PG) as organic solvent, 0.015% by weight of 4,4′-dichloro-2-hydroxydiphenyl ether (diclosan) as antimicrobial and 0.04 or 0.1% by weight of the amides listed in the below table was tested for its preserving activity against bacterial contamination (the weight percentages relate to the total weight of the composition). For this purpose, the samples were contaminated with a bacterial mix consisting of: • Escherichia coli DSM 1576 • Alcaligenes faecalis DSM 13644 • Pseudomonas aeruginosa ATCC 15442 • Staphylococcus aureus ATCC 6538 • Burkholderia cepacia DSM 7288 • Pseudomonas putida DSM 12735
The samples were inoculated with the bacterial mix at day 0 to obtain 10E+06 to 10E+07 CFU/ml inoculation in the test sample and stored at 25° C. for 7 days.
CFU was determined at day 7.
Any CFU value at day 7 (d7) obtained with a sample according to the invention containing diclosan and amide (10% PG+0.015% diclosan+Amide in water) lower than the respective value of the “comparative 3” example (10% by weight of propyleneglycol+0.015% by weight of 4,4′-dichloro-2-hydroxydiphenyl ether (diclosan) in water) indicates a better performance.

For `CCCCCCCCCC(=O)N(C)C` [n-Decanoyl-N,N-dimethylamide], the “d7 [CFU/ml]” value is on record as 43,000 CFU/ml (10% PG + 0.015% diclosan + 0.1% amide) and >100,000 CFU/ml (10% PG + 0.1% amide, no diclosan (Comparative 1b)).
